Laboratory results as given in PubChem BioAssay AID2060620 (Molecular Pharmacology Branch, DTP, NCI, 2025).

Test system: 328373-195-R-J1-PDC complex spheroids, viability % test/control
Assay: Anticancer human tumor 328373-195-R-J1-PDC patient-derived head and neck squamous carcinoma cell line growth inhibition [CLK]
Conditions: for IC50: curve of first compound; for viability, T/C: stronger effect = lower value; active = viability on the fitted dose curve at most 10% of control; inactive = the rest
Outline: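 Multi-cell-type spheroids combined patient-derived tumor cells with HUVEC endothelial cells and human mesenchymal stem cells. Paired agents were dosed in half-log steps down from about clinical Cmax, or from 10 microM where Cmax was unknown.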

[1] = second compound 0.0316 µM, first compound 0.0316 µM
[2] = second compound 0.0316 µM, first compound 0.1 µM
[3] = second compound 0.0316 µM, first compound 0.316 µM
[4] = second compound 0.0316 µM, first compound 1 µM
[5] = second compound 0.0316 µM, first compound 3.16 µM
[6] = second compound 0.0316 µM, first compound 10 µM
[7] = second compound 0.1 µM, first compound 0.0316 µM
[8] = second compound 0.1 µM, first compound 0.1 µM
[9] = second compound 0.1 µM, first compound 0.316 µM
[10] = second compound 0.1 µM, first compound 1 µM
[11] = second compound 0.1 µM, first compound 3.16 µM
[12] = second compound 0.1 µM, first compound 10 µM
[13] = second compound 0.316 µM, first compound 0.0316 µM
[14] = second compound 0.316 µM, first compound 0.1 µM
[15] = second compound 0.316 µM, first compound 0.316 µM
[16] = second compound 0.316 µM, first compound 1 µM
[17] = second compound 0.316 µM, first compound 3.16 µM
[18] = second compound 0.316 µM, first compound 10 µM
[19] = second compound 1 µM, first compound 0.0316 µM
[20] = second compound 1 µM, first compound 0.1 µM
[21] = second compound 1 µM, first compound 0.316 µM
[22] = second compound 1 µM, first compound 1 µM
[23] = second compound 1 µM, first compound 3.16 µM
[24] = second compound 1 µM, first compound 10 µM
[25] = second compound 3.16 µM, first compound 0.0316 µM
[26] = second compound 3.16 µM, first compound 0.1 µM
[27] = second compound 3.16 µM, first compound 0.316 µM
[28] = second compound 3.16 µM, first compound 1 µM
[29] = second compound 3.16 µM, first compound 3.16 µM
[30] = second compound 3.16 µM, first compound 10 µM
[31] = second compound 10 µM, first compound 0.0316 µM
[32] = second compound 10 µM, first compound 0.1 µM
[33] = second compound 10 µM, first compound 0.316 µM
[34] = second compound 10 µM, first compound 1 µM
[35] = second compound 10 µM, first compound 3.16 µM
[36] = second compound 10 µM, first compound 10 µM
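Also: spheroids exposed to the agents for 7 days.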

CC1COCCN1c1cc(C2(S(C)(=N)=O)CC2)nc(-c2ccnc3[nH]ccc23)n1 (stereo unspecified) + CN1CCN(c2cc(C(=O)Nc3cc4cc(-c5cnn(C)c5)ccc4cn3)ccn2)CC1
< 31.6 nM: IC50 (second compound 0.316 µM) | IC50 (second compound 1 µM) | IC50 (second compound 3.16 µM) | IC50 (second compound 10 µM)
inactive: viability, T/C [1] 95.4% | viability, T/C [2] 96.6% | viability, T/C [3] 88.2% | viability, T/C [4] 69.3% | viability, T/C [5] 25.9% | viability, T/C [7] 90.9% | viability, T/C [8] 86.8% | viability, T/C [9] 81.1% | viability, T/C [10] 55.2% | viability, T/C [11] 18% | viability, T/C [13] 22.7% | viability, T/C [14] 37.2% | viability, T/C [15] 28.5% | viability, T/C [16] 14.7% | viability, T/C [17] 7.56%
active: viability, T/C [6] 8.66% | viability, T/C [12] 9.2% | viability, T/C [18] 7.95% | viability, T/C [19] 0.21% | viability, T/C [20] 0.24% | viability, T/C [21] 0.58% | viability, T/C [22] 0.22% | viability, T/C [23] 2.35% | viability, T/C [24] 2.29% | viability, T/C [25] 2.09% | viability, T/C [26] 0.12% | viability, T/C [27] 0.16% | viability, T/C [28] 0.14% | viability, T/C [29] 1.51% | viability, T/C [30] 3.51% | viability, T/C [31] 0.14% | viability, T/C [32] 1.61% | viability, T/C [33] 1.87% | viability, T/C [34] 1.76% | viability, T/C [35] 1.92% | viability, T/C [36] 2.57%
1660 nM: IC50 (second compound 0.0316 µM)
1150 nM: IC50 (second compound 0.1 µM)

COc1ccc([C@@H](O)c2cc(-c3ncnc4cc(N5CCOCC5)ccc34)c(F)cc2Cl)nn1 + CN1CCN(c2cc(C(=O)Nc3cc4cc(-c5cnn(C)c5)ccc4cn3)ccn2)CC1
> 10000 nM: IC50 (second compound 0.0316 µM)
< 31.6 nM: IC50 (second compound 0.316 µM) | IC50 (second compound 1 µM) | IC50 (second compound 3.16 µM) | IC50 (second compound 10 µM)
active: viability, T/C [19] 0.11% | viability, T/C [20] 2.93% | viability, T/C [21] 2.16% | viability, T/C [22] 2.41% | viability, T/C [23] 1.4% | viability, T/C [24] 2.54% | viability, T/C [25] 2.66% | viability, T/C [26] 0.1% | viability, T/C [27] 0.14% | viability, T/C [28] 0.11% | viability, T/C [29] 3.57% | viability, T/C [30] 2.6% | viability, T/C [31] 1.28% | viability, T/C [32] 1.19% | viability, T/C [33] 0.19% | viability, T/C [34] 0.13% | viability, T/C [35] 0.17% | viability, T/C [36] 1.61%
inactive: viability, T/C [1] 91.6% | viability, T/C [2] 103% | viability, T/C [3] 91.1% | viability, T/C [4] 96.7% | viability, T/C [5] 71.7% | viability, T/C [6] 51.5% | viability, T/C [7] 73.2% | viability, T/C [8] 87.5% | viability, T/C [9] 73% | viability, T/C [10] 96.7% | viability, T/C [11] 71.5% | viability, T/C [12] 45.4% | viability, T/C [13] 21% | viability, T/C [14] 25.2% | viability, T/C [15] 20.6% | viability, T/C [16] 17.7% | viability, T/C [17] 21.5% | viability, T/C [18] 22.5%
8160 nM: IC50 (second compound 0.1 µM)

COc1ccc([C@@H](O)c2cc(-c3ncnc4cc(N5CCOCC5)ccc34)c(F)cc2Cl)nn1 + CNC(=O)c1ccc(Nc2nc(OC3CCCC3)c3c(-c4ccc5nc(C)oc5c4)c[nH]c3n2)c(OC)c1
< 31.6 nM: IC50 (second compound 0.1 µM) | IC50 (second compound 0.316 µM) | IC50 (second compound 1 µM) | IC50 (second compound 3.16 µM) | IC50 (second compound 10 µM)
inactive: viability, T/C [1] 51.2% | viability, T/C [2] 56.5% | viability, T/C [3] 43.4% | viability, T/C [4] 58.7% | viability, T/C [5] 55.4% | viability, T/C [6] 33.3% | viability, T/C [7] 10.5% | viability, T/C [8] 8.48% | viability, T/C [9] 12.4% | viability, T/C [10] 10% | viability, T/C [11] 9.78% | viability, T/C [12] 12.6% | viability, T/C [19] 10.3% | viability, T/C [20] 8.67% | viability, T/C [21] 10.8% | viability, T/C [22] 9.89% | viability, T/C [23] 9.31% | viability, T/C [24] 12.8% | viability, T/C [25] 9.71% | viability, T/C [26] 9.31% | viability, T/C [27] 9.23% | viability, T/C [28] 9.82% | viability, T/C [29] 10.5% | viability, T/C [30] 13.2% | viability, T/C [31] 10.6% | viability, T/C [32] 10.8% | viability, T/C [33] 8.9% | viability, T/C [34] 13.1% | viability, T/C [35] 12.2% | viability, T/C [36] 12.5%
3760 nM: IC50 (second compound 0.0316 µM)
active: viability, T/C [13] 8.21% | viability, T/C [14] 8.88% | viability, T/C [15] 8.95% | viability, T/C [16] 7.72% | viability, T/C [17] 10.2% | viability, T/C [18] 12.2%
